The source of these data is PMC5462828 (Scientific Reports, 2017).

Entries after “also recorded” stand apart in the source; their conditions may differ. Where two headings read alike, the source gives them in different places.

Data set [1] has as its system human RXFP1. Conditions: cited from earlier work.
The subject of data set [2] is T1, RXFP1 and Gαs.
T1 construct: forward primer encodes M-D-S-K-G-S-S, not the native RXFP1 start (N); expressed in transfected cells; host or cells: HEK293T cells stably expressing RXFP1-Rluc8, transiently co-transfected with the G protein subunits
Description: Real-time kinetic BRET, RXFP1-Rluc8 / Gαs. Type of data set: cell-based, human. The note with it: HEK293T co-expressing RXFP1-Rluc8, Gγ2-Venus, Gβ1, Gαs; H2 relaxin 100 nM, ML290 100 nM or 10 μM. The procedure:
(§1) HEK293 cell were seeded in 6-well plates at a density of 600,000 cells per well and transfected with constructs encoding the tagged receptors and signalling proteins. 24 h later cells were harvested in HEPES-buffered phenol red-free medium containing 5% FBS and plated out in a white 96-well plate (Nunc) that was incubated at 37 °C under 5% CO2. BRET assays were performed 48 h after transfection as described previously, [52]. Medium was replaced with phenol-red-free-DMEM supplemented with 5% FBS plus 5 μM coelenterazine h. BRET measurements were made at 37 °C using the PHERAstar Omega plate reader with Omega software (BMG LABTECH, Germany). Filtered light emissions were simultaneously measured in each of the “donor wavelength window” (475 ± 15 nm for Rluc8 with coelenterazine h) and “acceptor wavelength window” (535 ± 15 nm for Venus). Cells were assayed before and after treatment with ligands or 5% FBS phenol-red-free-DMEM medium containing 0.01% w/v BSA (vehicle). The BRET signal was calculated as previously described.

On the set-up of data set [3]: method as in PMID 23764525. The note with it: cited from earlier work.
Data set [4] has as its system ML290-mediated cAMP accumulation. Nature of the data set: Effect of signalling pathway inhibitors on ML290-mediated cAMP accumulation in human primary vascular cells. Type of data set: cell-based. The procedure:
cAMP and cGMP accumulation was determined as previously described, [16]. Briefly, HEK293 cells were plated in 96-well plates (5 × 10^4 cells/well) and human primary cells were plated into 24-well plates (1 × 10^5 cells/well) and grown overnight to achieve a confluent monolayer. Prior to stimulation, HEK cells were serum-starved in DMEM containing 0.5% FBS v/v and primary cells were serum-starved in M199 medium for 4–6 hours. […] Levels of cAMP and cGMP were detected according to the manufacturer’s instructions (Perkin-Elmer, Australia).

In data set [5] the test system is T2, RXFP1 and GαoB.
T2 construct: forward primer encodes M-D-S-K-G-S-S, not the native RXFP1 start (N); expressed in transfected cells; host or cells: HEK293T cells stably expressing RXFP1-Rluc8, transiently co-transfected with the G protein subunits
Description: Real-time kinetic BRET, RXFP1-Rluc8 / GαoB. The note with it: HEK293T co-expressing RXFP1-Rluc8, Gγ2-Venus, Gβ1, GαoB; H2 relaxin 100 nM, ML290 100 nM or 10 μM. Type of data set: cell-based, human. The procedure: as §1

The target in data set [6] is T3, RXFP1 (Homo sapiens, UniProt Q9HBX9).
T3 sequence (Q9HBX9 1-757): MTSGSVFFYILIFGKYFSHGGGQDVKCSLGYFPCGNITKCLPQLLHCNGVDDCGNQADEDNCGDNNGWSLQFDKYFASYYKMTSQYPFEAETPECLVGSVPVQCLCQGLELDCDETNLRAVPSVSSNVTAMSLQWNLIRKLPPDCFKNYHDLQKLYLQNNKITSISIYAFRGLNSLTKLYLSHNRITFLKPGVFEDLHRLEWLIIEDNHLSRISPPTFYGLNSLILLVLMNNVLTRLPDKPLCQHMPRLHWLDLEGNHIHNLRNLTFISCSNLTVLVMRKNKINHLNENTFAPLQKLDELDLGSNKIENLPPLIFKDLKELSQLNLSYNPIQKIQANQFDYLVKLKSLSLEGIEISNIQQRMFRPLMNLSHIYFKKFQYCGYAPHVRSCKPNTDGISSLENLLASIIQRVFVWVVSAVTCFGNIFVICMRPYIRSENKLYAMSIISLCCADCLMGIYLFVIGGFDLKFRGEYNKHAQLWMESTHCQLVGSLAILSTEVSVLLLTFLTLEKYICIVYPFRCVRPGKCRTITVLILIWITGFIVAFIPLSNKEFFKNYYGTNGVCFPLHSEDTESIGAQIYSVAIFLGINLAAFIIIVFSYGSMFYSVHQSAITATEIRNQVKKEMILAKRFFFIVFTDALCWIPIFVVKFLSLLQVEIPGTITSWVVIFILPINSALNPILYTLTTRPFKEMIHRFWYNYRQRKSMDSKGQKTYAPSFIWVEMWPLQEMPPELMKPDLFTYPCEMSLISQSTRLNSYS
Nature of the data set: ERK1/2 phosphorylation (Surefire) in HEK-RXFP1 cells. The note with it: ML290 10 μM, 10 min pretreatment. Type of data set: cell-based. On the set-up: expressed in transfected cells; host or cells: HEK293T / HEK293 cells stably expressing RXFP1 (HEK-RXFP1). The procedure: p-ERK1/2, p-p38MAPK and p-JNK1/2 was measured using the Surefire ERK, p38 and JNK kits (TGR BioSciences, Australia) as described previously, [16]. Briefly, HEK-RXFP1 cells were plated into 96-well plates (5 × 10^4 cells/well) and primary cells grown in 24-well plates (1 × 10^5 cells/well) overnight to achieve a confluent monolayer. Prior to stimulation, HEK293 cells were serum-starved with DMEM containing 0.5% (v/v) FBS and primary cells in M199 medium for 4–6 hours. […] Levels of p-ERK1/2, p-p38MAPK and p-JNK1/2/3 were detected as per manufacturer’s instructions (Perkin-Elmer, Australia).

The subject of data set [7] is pig RXFP1. Set-up: method as in PMID 26866459. The note with it: cited from earlier work.
The target in data set [8] is T3, RXFP1. Description: cAMP accumulation in human primary vascular cells and cardiac fibroblasts. Conditions: for Emax: 30 min. It counts as cell-based. The procedure:
(§2) cAMP and cGMP accumulation was determined as previously described, [16]. Briefly, HEK293 cells were plated in 96-well plates (5 × 10^4 cells/well) and human primary cells were plated into 24-well plates (1 × 10^5 cells/well) and grown overnight to achieve a confluent monolayer. Prior to stimulation, HEK cells were serum-starved in DMEM containing 0.5% FBS v/v and primary cells were serum-starved in M199 medium for 4–6 hours. Where appropriate, cells were pre-incubated with mSIRK (5 μM, 30 min), mSIRK control peptide L9A (5 μM, 30 min), gallein (100 μM, 30 min), Wortmannin (100 nM, 30 min), NF023 (10 μM, 30 min) and NF449 (10 μM, 30 min). Levels of cAMP and cGMP were detected according to the manufacturer’s instructions (Perkin-Elmer, Australia).

Data set [9] concerns RXFP1. The description is as above. Type of data set: cell-based. The note with it: HUAEC, cells known not to express cell surface RXFP1; 30 min. On the procedure:
as §2

As for `CC(C)Oc1ccccc1C(=O)Nc1ccccc1C(=O)Nc1cccc(S(=O)(=O)C(F)(F)F)c1` [ML290, 2-Isopropoxy-N-(2-(3-(trifluoromethylsulfonyl)phenylcarbamoyl)phenyl) benzamide], the “competition for 125I-H2 relaxin binding” value in data set [1] is reported as “does not compete”. In data set [2], the “ligand-induced BRET, RXFP1 - Gαs interaction” value is “promoted interactions”. For the same compound, in data set [3], the microsomal stability entry is listed as “high microsomal stability”. Besides, the “ML290-mediated cAMP accumulation, ML290 alone” value was 22.5 ± 5.5 % response to 50 μM forskolin in data set [4] (HCAECs, ML290 10 μM, 30 min); 18.8 ± 4.3 % response to 50 μM forskolin in [4] (HUASMCs, control of NF449 and mSIRK experiments); 16.7 ± 3.4 % response to 50 μM forskolin in data set [4] (HUASMCs, control of gallein and Wortmannin experiments); 16.4 ± 2.5 % response to 50 μM forskolin in data set [4] (HUVECs, ML290 10 μM, 30 min); 18.8 ± 8.0 % response to 50 μM forskolin in data set [4] (HUVSMCs, control of NF449 and mSIRK experiments); 12.6 ± 2.4 % response to 50 μM forskolin in data set [4] (HUVSMCs, control of gallein and Wortmannin experiments). In data set [5], the “ligand-induced BRET, RXFP1 - GαoB interaction” value is reported as “promoted interactions; also recorded: moved in the opposite direction to that to H2 relaxin”. The “effect of pretreatment on maximum p-ERK1/2 response to relaxin” value in data set [6] is recorded as “significantly increased”. The “agonist action at pig RXFP1” value in data set [7] was “activates”. Moreover, the maximal effect (Emax) in data set [8] (HUVEC, read-out: cAMP accumulation efficacy (Emax), HUVEC) was 11.7%; in data set [8] (read-out: cAMP accumulation efficacy (Emax), HCAEC) it was 17.9%; in [8] (read-out: cAMP accumulation efficacy (Emax), HUASMC) it was 11.9%. Besides, in [8] (human primary vascular cells), the “potency for cAMP accumulation, less potent than H2 relaxin” value was 3 orders of magnitude. The cAMP accumulation result in data set [9] is recorded as “did not cause cAMP accumulation”.
